Source: US12029728B2, “Small molecules with anti-protozoan activity” (New Mexico Tech University Research Park Corporation, priority 2018, dated 2024)
In brackets after ≈: the same amount, converted by molar mass. Values belong to the molecule of their own block, whether it stands above or below them.

Legend:
T. cruzi epimastigotes [1] = assay: T. cruzi epimastigote toxicity, visually assessed; assay type: cell-based, Trypanosoma cruzi; settings: 48 hours at 30° C.; for killing at 100 µM: Trypanosoma cruzi, epimastigotes, read-out: T. cruzi death @ 100 μM
Protocol: A 1:20 working dilution of T. cruzi epimastigotes was prepared in LIT1029 medium from a saturated (˜4×10^6 cells/mL) culture. 100 μL of the 1:20 working dilution was plated, and the epimastigotes were incubated with a compound of the disclosure at varying concentrations for 48 hours at 30° C. Following T. cruzi epimastigote treatment with a compound of the disclosure, the toxicity of compounds towards T. cruzi epimastigotes was visually assessed.

[2] = tested on: T. cruzi amastigotes and trypomastigotes; assay: Viability of tdTomato T. cruzi amastigotes and trypomastigotes, fluorescence; assay type: cell-based, Trypanosoma cruzi; settings: 25 μM, 48 hours at 37° C.
Protocol: The viability of a mixture of T. cruzi amastigotes and trypomastigotes after exposure to 25 μM of the compounds of the disclosure was determined. 2×10^5 parasites/100 μL were plated in 96-well plates. Parasites expressing tdTomato were used to assess parasite viability using fluorescence measurements. Parasites were incubated with 25 μM of the compounds of the disclosure for 48 hours at 37° C. After the incubation period, the viability of amastigotes and trypomastigotes was assessed by measuring the fluorescence intensity at 510 nm-590 nm using a Tecan plate reader, where the presence of fluorescence indicated viable amastigotes/trypomastigotes.

[3] = tested on: T. cruzi-infected ARPE cells; assay: Treatment of T. cruzi-infected ARPE cells, imaging; assay type: cell-based, Trypanosoma cruzi
Protocol: Four confocal dishes were prepared with 10,000 ARPE cells, which were adhered overnight at 37° C. The four dishes were ARPE control cells, non-infected but 5 μM Compound 2-treated cells, non-treated but infected cells, and infected cells treated with 5 μM Compound 2. For the infected dishes, ARPE media was removed and replaced with 2 mL of infectious amastigotes and trypomastigotes from the ARPE passaged plate. The dishes were then incubated for 2 hours at 37° C. The treated dishes were incubated with 5 μM Compound 2 for 5 days at 37° C., while untreated dishes were incubated in fresh media without Compound 2 for 5 days at 37° C. After the 5-day period, cells were washed 3 times in ARPE media and fixed with 1 mL 4% paraformaldehyde. Cells were visualized using an EVOS cell imaging system. Amastigotes appeared as small, dense, and mostly birefringent in images.
The experiment above was repeated using 1 μM Compound 2.
Four confocal dishes with 10,000 ARPE cells were prepared and adhered overnight at 37° C. The four dishes were: 1) ARPE control cells; 2) non-infected cells treated with 1 μM Compound 2; 3) untreated infected cells; and 4) T. cruzi-infected cells treated with 1 μM Compound 2. For the infected dishes, ARPE media was removed and replaced with 2 mL of infectious amastigotes and trypomastigotes expressing tdTomato (from ARPE passaged plate). The dishes were then incubated overnight for 7 days at 37° C. The untreated dishes were incubated in fresh media without Compound 2 for 7 days at 37° C. After the 7-day incubation period, cells were washed 3 times in ARPE media and fixed with 1 mL 4% paraformaldehyde. tdTomato fluorescence, which is indicative of viable T. cruzi, was then observed via fluorescence microscopy.
ARPE cells were plated in confocal dishes (20,000 cells per dish) and incubated overnight at 37° C. Cells were infected with T. cruzi by incubating cells with T. cruzi amastigotes and trypomastigotes expressing tdTomato (˜2×10^5 cells in total) for 24 hours at 37° C. Uninfected cells served as controls. Following the T. cruzi incubation period, extracellular parasites were removed, and the medium was replaced with DMEM/F12 culture media with or without 1 μM Compound 2. The cells were incubated further for 24 hours at 37° C. Cells were then treated two more times with fresh DMEM/F12 culture media with or without 1 μM Compound 2 and incubated for 24 hours at 37° C. Following fixation of cells in 4% paraformaldehyde, plates were imaged for tdTomato fluorescence, which is indicative of viable T. cruzi, such that the effects of repeated Compound 2 treatment could be compared to a single treatment with Compound 2.
ARPE cells were plated in confocal dishes (20,000 cells per dish) and incubated overnight at 37° C. Cells were infected with T. cruzi by incubating cells with T. cruzi amastigotes and trypomastigotes expressing tdTomato (˜2×10^5 cells in total) for 24 hours at 37° C. before washing dishes three times with DMEM/F12 culture media. Uninfected plates served as controls. The dishes were then treated with 2 μM Compound 2 or left untreated as a control and incubated further for 5 days at 37° C. The treated dish received a single treatment of Compound 2 on day 1. Dishes were washed twice with DMEM/F12 media and fixed in 4% paraformaldehyde before being imaged using confocal microscopy. […] The other Compound 2 dishes that were not incubated with T. cruzi a second time were used as controls. Following fixation of cells in 4% paraformaldehyde, tdTomato fluorescence of the cells was assessed using confocal microscopy.
ARPE cells were plated in confocal dishes (20,000 cells per dish) and incubated overnight at 37° C. Dishes were incubated with T. cruzi amastigotes and trypomastigotes expressing tdTomato (˜2×10^5 cells) for 48 hours at 37° C. Untreated cells served as controls. Cells were then washed 3 times with cell medium, treated with 5 μM Compound 2 or left untreated as a control and incubated further for 2 days at 37° C. […]

[4] = tested on: T. cruzi-infected VERO cells; assay: Treatment of T. cruzi-infected VERO cells, confocal microscopy; assay type: cell-based, Trypanosoma cruzi; settings: 5 μM, 5 days
Protocol: 2×10^4 VERO cells were plated in individual confocal dishes and allowed to adhere for 16 hours at 37° C. […] The T. cruzi-infected dishes were incubated with ˜2×10^6 T. cruzi/mL for 24 hours at 37° C. to allow for internalization of parasites. T. cruzi parasites expressed tdTomato, which allowed for visualization of parasites within cells. After the 24-hour T. cruzi incubation period, extracellular parasites were removed from culture dishes. The cells were washed 3 times with cell culture media (10% fetal bovine serum; 1% penicillin/streptomycin). Designated plates were then incubated with 5 μM Compound 2 or 5 μM Compound 7 for 5 days at 37° C. Cells were then fixed in 2% paraformaldehyde and tdTomato fluorescence in cells was assessed via confocal microscopy.

L. major-infected MDMs = assay: L. major-infected human MDMs, quantitative cell bioimaging; assay type: cell-based, Leishmania major; settings: 2 μM or 20 μM
Protocol: Human MDMs were cultured on glass slides and incubated with metacyclic L. major for 24 hours to allow for internalization of parasites. After the 24-hour L. major incubation period, extracellular parasites were removed from the culture. 24 hours after the removal of extracellular parasites, infected cells were treated with vehicle control (DMSO), 5 μM MTF, 1 μM Compound 2, 5 μM Compound 2, 10 μM Compound 2, 2 μM Compound 7, or 20 μM Compound 7. Following treatment, the cells were fixed with 2% paraformaldehyde and subsequently stained with the DNA stain Hoechst 33342. The stained cover slips were transferred onto glass slides, and quantitative cell bioimaging was utilized to determine the number of amastigotes per 500 cells using a CellInsight CX5 High Content screening platform.

L. major promastigotes = assay: L. major promastigote viability, propidium iodide flow cytometry; assay type: cell-based, Leishmania major; settings: 50 μM, 48 hours at 24° C.
Protocol: 5×10^5 L. major promastigotes were treated with vehicle control (DMSO), […], 5 μM Compound 5, 50 μM Compound 2, 50 μM Compound 5, or […] for 48 hours at 24° C. Promastigote viability was then assessed via a propidium iodide flow cytometry assay. Propidium iodide is only taken up by dead cells, and the presence of fluorescence in a promastigote sample reflects compound efficacy.

T. cruzi trypomastigotes = assay: ATP viability assay, reference drugs, trypomastigotes; assay type: cell-based; settings: Trypanosoma cruzi, 48 hours at 37° C.
Protocol: (§1) T. cruzi epimastigotes, amastigotes, or trypomastigotes were plated at 2×10^5 cells per well in a 96 well plate. Plated epimastigotes were prepared in LIT1029 medium, while amastigotes and trypomastigotes were collected after being passaged in ARPE cells. T. cruzi cells were treated with 0 μM, 0.39 μM, 0.78 μM, 1.56 μM, 3.125 μM, 6.25 μM, 12.5 μM, 25 μM, 50 μM, or 100 μM of nifurtimox for 48 hours at 37° C. After treatment with nifurtimox, T. cruzi viability was assessed via an ATP assay. An increase in RLU indicated the presence of ATP and viable cells.
as §1, with “benznidazole” for “nifurtimox”, “benznidazole,” for “nifurtimox,”, “RLUs” for “RLU”

T. cruzi amastigotes = assay: ATP viability assay, reference drugs, amastigotes; assay type: cell-based; settings: Trypanosoma cruzi, 48 hours at 37° C.
Protocol: as §1
as §1, with “benznidazole” for “nifurtimox”, “benznidazole,” for “nifurtimox,”, “RLUs” for “RLU”

T. cruzi epimastigotes [5] = assay: ATP viability assay, reference drugs, epimastigotes; assay type: cell-based; settings: Trypanosoma cruzi, 48 hours at 37° C.
Protocol: as §1
as §1, with “benznidazole” for “nifurtimox”, “benznidazole,” for “nifurtimox,”, “RLUs” for “RLU”

Structure (SMILES): Cc1[nH]c2ccccc2c1C(C(=O)NO)c1ccccc1 (centres unmarked) [Compound 3, N-hydroxy-2-(2-methyl-1H-indol-3-yl)-2-phenylacetamide]
killing at 100 µM (T. cruzi epimastigotes [1]): 0%

Structure (SMILES): COc1ccc(C(C(=O)NO)c2c(-c3ccc4ccccc4c3)[nH]c3ccccc23)cc1 (centres unmarked) [Compound 6, N-hydroxy-2-(4-methoxyphenyl)-2-(2-(naphthalen-2-yl)-1H-indol-3-yl)acetamide]
killing at 100 µM (T. cruzi epimastigotes [1]): 0%

Structure (SMILES): NC(=O)C(c1ccccc1)c1c(-c2ccc3ccccc3c2)[nH]c2ccccc12 (centres unmarked) [Compound 8, 2-(2-(naphthalen-2-yl)-1H-indol-3-yl)-2-phenylacetamide]
Concentration at which T. cruzi epimastigote death is greater than or equal to ~99% (T. cruzi epimastigotes [1]): 50 µM | killing at 100 µM (T. cruzi epimastigotes [1]): 100%

Structure (SMILES): N#CC(c1ccccc1)c1c(-c2ccc3ccccc3c2)[nH]c2ccccc12 (centres unmarked) [Compound 9, 2-(2-(naphthalen-2-yl)-1H-indol-3-yl)-2-phenylacetonitrile]
Concentration at which T. cruzi epimastigote death is greater than or equal to ~99% (T. cruzi epimastigotes [1]): ≥100 µM | killing at 100 µM (T. cruzi epimastigotes [1]): 100%

Structure (SMILES): O=C(NO)C(c1ccccc1)c1c(-c2ccccc2)[nH]c2ccccc12 (centres unmarked) [Compound 1, N-hydroxy-2-phenyl-2-(2-phenyl-1H-indol-3-yl)acetamide]
toxicity to T. cruzi amastigotes and trypomastigotes [2]: most toxic | Concentration at which T. cruzi epimastigote death is greater than or equal to ~99% (T. cruzi epimastigotes [1]): 100 µM | killing at 100 µM (T. cruzi epimastigotes [1]): 100% | number of intracellular parasites in ARPE culture ([3]; 10 μM once per day for 2 days): decreased the number of intracellular parasites

Structure (SMILES): Cn1c(-c2ccc3ccccc3c2)c(C(C(=O)NO)c2ccccc2)c2ccccc21 (centres unmarked) [Compound 7, N-hydroxy-2-(1-methyl-2-(naphthalen-2-yl)-1H-indol-3-yl)-2-phenylacetamide]
T. cruzi infection in VERO cells [4]: eradication of T. cruzi infection | number of parasites per cell (L. major-infected MDMs): decreased the number of parasites per cell | toxicity to T. cruzi amastigotes and trypomastigotes [2]: most toxic | Concentration at which T. cruzi epimastigote death is greater than or equal to ~99% (T. cruzi epimastigotes [1]): ≥100 µM | killing at 100 µM (T. cruzi epimastigotes [1]): 100% | parasitic burden ([3]; 1 μM, 3 days): decreased parasitic burden | protection from a recurring infection ([3]; 1 μM, 3 days): not protected from a recurring infection | T. cruzi in ARPE cells (CherryTomato fluorescence) ([3]; 2 μM, two days): eradicated T. cruzi | T. cruzi infections in ARPE cells ([3]; 2.5 μM, 3 days): minimal | T. cruzi in ARPE cells ([3]; 5 μM, 3 days): eradicated | intracellular T. cruzi and re-infection ([3]; single dose of 2 μM, 2 days): killed intracellular T. cruzi and protected the cells from re-infection

Structure (SMILES): O=C(NO)C(c1ccccc1)c1c(-c2cccc3ccccc23)[nH]c2c1ccc1ccccc12 (centres unmarked) [Compound 4, N-hydroxy-2-(2-(naphthalen-1-yl)-1H-benzo[g]indol-3-yl)-2-phenylacetamide]
killing at 100 µM (T. cruzi epimastigotes [1]): 0%

Structure (SMILES): CC(C)c1ccc(C(C(=O)NO)c2c(-c3ccc4ccccc4c3)[nH]c3ccccc23)cc1 (centres unmarked) [Compound 5, N-hydroxy-2-(4-isopropylphenyl)-2-(2-(naphthalen-2-yl)-1H-indol-3-yl)acetamide]
efficacy on L. major promastigote survival (L. major promastigotes): higher efficacy than MTF or the vehicle control

MIC (T. cruzi trypomastigotes): 6.25 µM (≈ 1.8 µg/mL) | MIC (T. cruzi amastigotes): 3.12 µM (≈ 0.896 µg/mL) | MIC (T. cruzi epimastigotes [5]): 25 µM (≈ 7.18 µg/mL)
Structure (SMILES): CC1CS(=O)(=O)CCN1/N=C/c1ccc([N+](=O)[O-])o1 (centres unmarked) [nifurtimox]

Structure (SMILES): O=C(Cn1ccnc1[N+](=O)[O-])NCc1ccccc1 [benznidazole]
MIC (T. cruzi trypomastigotes): > 100 µM | MIC (T. cruzi amastigotes): 100 µM (≈ 26 µg/mL) | MIC (T. cruzi epimastigotes [5]): > 100 µM | clearance of T. cruzi infection in ARPE cells ([3]; 2 μM, 2 days): not cleared from T. cruzi infection

Structure (SMILES): CCCCn1c(-c2ccc3ccccc3c2)c(C(C(=O)NO)c2ccccc2)c2ccccc21 (centres unmarked) [Compound 10, 2-(1-butyl-2-(naphthalen-2-yl)-1H-indol-3-yl)-N-hydroxy-2-phenylacetamide]
toxicity to T. cruzi amastigotes and trypomastigotes [2]: most toxic | Concentration at which T. cruzi epimastigote death is greater than or equal to ~99% (T. cruzi epimastigotes [1]): 25 µM | killing at 100 µM (T. cruzi epimastigotes [1]): > 50%

Structure (SMILES): CN(C)c1ccc(C(C(=O)NO)c2c(-c3ccc4ccccc4c3)[nH]c3ccccc23)cc1 (centres unmarked) [Compound 11, 2-(4-(dimethylamino)phenyl)-N-hydroxy-2-(2-(naphthalen-2-yl)-1H-indol-3-yl)acetamide]
Concentration at which T. cruzi epimastigote death is greater than or equal to ~99% (T. cruzi epimastigotes [1]): 100 µM | killing at 100 µM (T. cruzi epimastigotes [1]): 100%
